The text below walks through data of patent US5686494A, “Pharmaceutical preparations for ameliorating epigastric functional disorders” (Daiichi Pharmaceutical Co., Ltd., priority 1993, dated 1997).

Assay [1] has as its system dopamine-induced delayed gastric emptying model. Put plainly: Effect on gastric emptying in dopamine-induced delayed gastric emptying model (phenol red method). Format: in vivo, male Slc:ddY mice. The conditions noted are these: for Gastric emptying rate (%): 90 min before phenol red, dopamine 30 mg/kg i.p. 5 min before, measured 30 min after phenol red. The method, then:
Effect on gastric emptying in dopamine-induced delayed gastric emptying model (phenol red method) After overnight fasting, male Slc:ddY mice of 6 to 7 weeks of age (body weight, 28 to 32 g; SLC, Shizuoka, Japan) were divided into 7 groups, namely a group in which dopamine was administered with no drug treatment (No. 1 in Table 2), groups in which dopamine was administered after administration of the compound A (Nos. 2 to 5), a group in which dopamine was administered after administration of cisapride as a positive control (No. 6) and a group in which dopamine and drug treatments were not made (No. 7). Seven mice were used in each group. First, 90 minutes before the administration of phenol red, 0.01 mg/kg, 0.03 mg/kg, 0.1 mg/kg or 0.3 mg/kg of the compound A suspended in 0.5% carboxymethylcellulose was orally administered to mice of the compound A administration groups (Nos. 2 to 5), 3 mg/kg of cisapride suspended in 0.5% carboxymethylcellulose was orally administered to mice as the positive control drug administration group (No. 6) and 0.5% carboxymethylcellulose was orally administered to mice as the dopamine administration group with no drug treatment (No. 1) and the no drug and no dopamine treatment group (No. 7). Next, 5 minutes before the phenol red administration, 30 mg/kg of dopamine which has been dissolved in distilled water and then diluted with physiological saline was intraperitoneally administered to mice of each group. Thereafter, phenol red dissolved in 1% methylcellulose was orally administered with a dose of 0.2 mg/0.3 ml/mouse. […] mouse/X)]×100 (X is an average value of the recovered phenol red remained in the stomach excised from each mouse sacrificed just after the phenol red administration)

The test system of assay [2] is cholecystokinin (CCK)-induced delayed gastric emptying model. Put plainly: Effect on gastric emptying in cholecystokinin (CCK)-induced delayed gastric emptying model (Phenol red method). The class given is in vivo, male Slc:ddY mice. The conditions noted are these: for Gastric emptying rate (%): 90 min before phenol red, CCK 5 μg/kg i.p. 5 min before, measured 30 min after phenol red. The protocol:
Effect on gastric emptying in cholecystokinin (CCK)-induced delayed gastric emptying model (Phenol red method)
After overnight fasting, male Slc:ddY mice of 6 to 7 weeks of age (body weight, 20 to 30 g; SLC, Shizuoka, Japan) were divided into six groups: a group in which cholecystokinin was administered with no drug treatment (No. 1 in Table 1), groups in which cholecystokinin was administered after administration of compound A (Nos. 2 to 4), a group in which cholecystokinin was administered after administration of cisapride as a positive control (No. 5) and a group in which cholecystokinin and drug treatments were not made (No. 6). Five to 15 mice were used in each group.
First, 90 minutes before the administration of phenol red, 1 mg/kg, 3 mg/kg or 10 mg/kg of compound A suspended in 0.5% carboxymethylcellulose was orally administered to mice of the compound A administration groups, respectively, (Nos. 2 to 4), 3 mg/kg of cisapride suspended in 0.5% carboxymethylcellulose was orally administered to mice as the positive control drug administration group (No. 5) and 0.5% carboxymethylcellulose was orally administered to mice of the […] (No. 1) and the no drug and no cholecystokinin treatment group (No. 6). Next, 5 minutes before the phenol red administration, 5 μg/kg of cholecystokinin (CCK8s, manufactured by Sigma) which had been dissolved in distilled water and then diluted with physiological saline was intraperitoneally administered to mice of each group. Thereafter, phenol red dissolved in 1% methylcellulose was orally administered with a dose of 0.2 mg/0.3 ml/mouse. After 30 minutes of the phenol red administration, each mouse was sacrificed by cervical dislocation to excise the stomach, and the amount of phenol red remaining in the excised stomach was measured to calculate the gastric emptying rate (%) by the following formula.
Gastric emptying rate (%)=[1-(phenol red recovered from drug-applied
(X is the average value of the recovered phenol red remaining in the stomach excised from each mouse sacrificed just after the phenol red administration)

The test system of assay [3] is patients diagnosed as chronic gastritis and the like without morphological changes in the stomach. The assay is described as follows: Effects on subjective symptoms in patients. Format: in vivo, human. An excerpt: (§1) Effects on subjective symptoms and gastric emptying in patients
(§2) A total of 8 patients diagnosed as chronic gastritis and the like without morphological changes in the stomach were examined in this test, each patient complaining of medium or more intense chronic epigastric fullness, having other NUD (or epigastric dysfunction complaints) such as gastric oppression, nausea, vomiting, anorexia, heartburn and the like and also showing delayed gastric emptying.
(§3) Each patient was allowed to take 2 tablets of the test pharmaceutical preparation of Example 1 three times a day 15 to 30 minutes before morning, noon and evening meals (600 mg of compound A/day), and the administration was continued for 2 weeks. Subjective symptoms (Table 3) were checked before and 2 weeks after the administration and gastric emptying (Table 4) was checked before and 2 weeks after the administration.
Subjective symptoms were examined by checking existence of the symptoms before and 2 weeks after the administration.

Assay [4] shares this test system. The assay is described as follows: Effect on gastric emptying in patients (acetaminophen method). Format: in vivo, human.
Description: as §1, §2, §3
Gastric emptying was examined in accordance with the acetaminophen method of Heading et al (cf. Br. J. Pharmacol. 47 415-421 (1973)). That is, each patient after overnight fasting with no drug administration was allowed to take a test food (200 ml of a liquid natural food OKUNOS-A, thoroughly mixed with 1.5 g of acetaminophen) at 9 a.m. and then to take a seat without eating and drinking until completion of the examination. Heparinized blood samples were collected before and 45 minutes after the administration. Thereafter, serum was separated from each sample to measure serum acetaminophen concentration by a high performance liquid chromatography (HPLC).

Where [5] appears, read: 2 tablets of Example 1 three times a day (600 mg of compound A/day), 2 weeks.

Where “and” joins values, the source holds several entries; their conditions need not be identical. Equal values may be shown once. Ends that are not written are not given here. * marks the point of attachment. SO3H = O=S(=O)(O)*

As to `NCCc1ccc(O)c(O)c1` [dopamine, reference compound], the “gastric emptying rate reduced to (fraction)” value in assay [1] (30 mg/kg dopamine intraperitoneal, no drug) is 1/20.

For the compound `COc1cc(N)c(Cl)cc1C(=O)NC1CCN(CCCOc2ccc(F)cc2)CC1OC` (stereo not drawn) [Cisapride, cisapride, reference compound], the “Gastric emptying rate (%)” value in assay [2] (positive control, 3 mg/kg oral) amounted to 36.7 ± 6.8%; in assay [1] (3 mg/kg oral) it was 23.4 ± 6.6%.

Turning to “cholecystokinin (DY(SO3H)MGWMDF; not fully specified (C-terminus); ends and bridges not checked; UniProt P06307 96-103, looked up) [cholecystokinin (CCK8s, manufactured by Sigma), reference compound]”, the “gastric emptying rate reduced to (fraction)” value in assay [2] (5 μg/kg cholecystokinin intraperitoneal, no drug) is on record as 1/3.

Consider `CNC(=O)c1cccc(NCC(=O)NCCc2ccc(OC)c(OC)c2)c1` [Compound A, 3-[[[2-(3,4-dimethoxyphenyl)ethyl]carbamoyl]methyl]amino-N-methylbenzamide], for which the “Gastric emptying rate (%)” value is recorded as 24.8 ± 2.1% in assay [2] (1 mg/kg oral); 27.6 ± 4.2% in assay [2] (3 mg/kg oral); 40.5 ± 6.9% in assay [2] (10 mg/kg oral); 6.9 ± 4.7% in assay [1] (0.01 mg/kg oral); 21.2 ± 6.1% in assay [1] (0.03 mg/kg oral); 18.1 ± 8.3% in assay [1] (0.1 mg/kg oral). Also, in assay [1] (0.3 mg/kg oral), the “Gastric emptying rate (%)” value is 36.2 ± 10.2%. Moreover, the “gastric emptying rate improved” value is “improved in a dose dependent fashion” in assay [2] (1 mg/kg, 3 mg/kg or 10 mg/kg oral, vs CCK-treated mice with reduced gastric emptying rate) and “improved” in assay [1] (0.01 mg/kg, 0.03 mg/kg, 0.1 mg/kg or 0.3 mg/kg oral, vs dopamine-treated mice with reduced gastric emptying rate). Moreover, the “Symptom-disappeared cases/tested cases: Abdominal distension” value in assay [3] (setting [5]) is 7/7. Besides, in assay [3] (setting [5]), the “Symptom-disappeared cases/tested cases: Anorexia” value was 3/3. Besides, the “Symptom-disappeared cases/tested cases: Epigastralgia” value in assay [3] (setting [5]) is 4/4. For the same compound, the “Symptom-disappeared cases/tested cases: Gastric disphoria” value in assay [3] (setting [5]) was 4/4. Moreover, in assay [3] (setting [5]), the “Symptom-disappeared cases/tested cases: Heartburn” value was 2/2. For the same compound, in assay [3] (setting [5]), the “Symptom-disappeared cases/tested cases: Nausea” value was 4/4. In assay [3] (setting [5]), the “Symptom-disappeared cases/tested cases: Vomiting” value was 3/3. Besides, the “disappearance of subjective symptoms” value in assay [3] (patients No. 1 to No. 8, after 2 weeks, 600 mg/day oral) is on record as “complete disappearance of subjective symptoms”. The “Serum acetaminophen concentration, After administration” value in assay [4] (2 weeks after start, 600 mg of compound A/day oral, individual patients No. 1 to 8 in order, 45 minutes after 1.5 g acetaminophen in test food) is 7.6 µg/mL and 10.1 µg/mL and 12.8 µg/mL and 7.8 µg/mL and 7.3 µg/mL and 8.1 µg/mL and 8.5 µg/mL and 7.1 µg/mL. In addition, the “amelioration of gastric emptying (cases)” value in assay [4] (2 weeks, 600 mg of compound A/day oral) is recorded as 7 of the 8. Besides, the “Serum acetaminophen concentration, Before administration” value in assay [4] (baseline before drug administration, individual patients No. 1 to 8 in order, 45 minutes after 1.5 g acetaminophen in test food) was 7.6 µg/mL and 8.4 µg/mL and 8.0 µg/mL and 6.1 µg/mL and 6.9 µg/mL and 6.6 µg/mL and 5.2 µg/mL and 4.6 µg/mL.
